Measurements reported in ChEMBL document CHEMBL5131407, “Design, synthesis and activity evaluation of prodrug form JBP485 and Vitamin E for alleviation of NASH” (Bioorg Med Chem Lett, 2022).
Active and inactive are the calls of the source.

Columns and labels:
Type in all cases: functional, organism-based
Mus musculus [1] = assay: Anti-NASH activity in CCl4-induced nonalcoholic steatohepatitis C57BL mouse assessed as reduction in liver index at 100 mg/kg
Mus musculus [2] = assay: Anti-NASH activity in CCl4-induced nonalcoholic steatohepatitis C57BL mouse assessed as reduction in liver index at 30 to 100 mg/kg checked in presence of 60 mg/kg vitamin E; details: dose 30-100 mg/kg
Mus musculus [3] = assay: Anti-NASH activity in CCl4-induced nonalcoholic steatohepatitis C57BL mouse assessed as reduction in steatosis at 100 mg/kg by H and E staining based assay
Mus musculus [4] = assay: Anti-NASH activity in CCl4-induced nonalcoholic steatohepatitis C57BL mouse assessed as reduction in liver ballooning degeneration at 100 mg/kg by H and E staining based assay
Mus musculus [5] = assay: Anti-NASH activity in CCl4-induced nonalcoholic steatohepatitis C57BL mouse assessed as reduction in liver lobular inflammation at 100 mg/kg by H and E staining based assay
Mus musculus [6] = assay: Anti-NASH activity in CCl4-induced nonalcoholic steatohepatitis C57BL mouse assessed as reduction in liver fibrosis at 100 mg/kg by sirius red staining based assay
Mus musculus [7] = assay: Anti-NASH activity in CCl4-induced nonalcoholic steatohepatitis C57BL mouse at 100 mg/kg by Oil red-O staining based assay
Mus musculus [8] = assay: Anti-NASH activity in CCl4-induced nonalcoholic steatohepatitis C57BL mouse assessed as reduction in steatosis at 30 to 100 mg/kg checked in presence of vitamin E by H and E staining based assay; details: dose 30-100 mg/kg
Mus musculus [9] = assay: Anti-NASH activity in CCl4-induced nonalcoholic steatohepatitis C57BL mouse assessed as reduction in liver ballooning degeneration at 30 to 100 mg/kg checked in presence of vitamin E by H and E staining based assay; details: dose 30-100 mg/kg
Mus musculus [10] = assay: Anti-NASH activity in CCl4-induced nonalcoholic steatohepatitis C57BL mouse assessed as reduction in liver lobular inflammation at 30 to 100 mg/kg checked in presence of vitamin E by H and E staining based assay; details: dose 30-100 mg/kg
Mus musculus [11] = assay: Anti-NASH activity in CCl4-induced nonalcoholic steatohepatitis C57BL mouse assessed as reduction in liver fibrosis at 30 to 100 mg/kg checked in presence of vitamin E by sirius red staining based assay; details: dose 30-100 mg/kg
Mus musculus [12] = assay: Anti-NASH activity in CCl4-induced nonalcoholic steatohepatitis C57BL mouse at 30 to 100 mg/kg checked in presence of vitamin E by Oil red-O staining based assay; details: dose 30-100 mg/kg
Mus musculus [13] = assay: Anti-NASH activity in CCl4-induced nonalcoholic steatohepatitis C57BL mouse assessed as reduction in serum ALT level at 30 to 100 mg/kg checked in presence of vitamin E; details: dose 30-100 mg/kg
Mus musculus [14] = assay: Anti-NASH activity in CCl4-induced nonalcoholic steatohepatitis C57BL mouse assessed as reduction in serum AST level at 30 to 100 mg/kg checked in presence of vitamin E; details: dose 30-100 mg/kg
Mus musculus [15] = assay: Anti-NASH activity in CCl4-induced nonalcoholic steatohepatitis C57BL mouse assessed as reduction in LDH level at 100 mg/kg checked in presence of vitamin E
Mus musculus [16] = assay: Anti-NASH activity in CCl4-induced nonalcoholic steatohepatitis C57BL mouse assessed as reduction in triglyceride level at 100 mg/kg administered for 14 days; details: time 14.0 day
Mus musculus [17] = assay: Anti-NASH activity in CCl4-induced nonalcoholic steatohepatitis C57BL mouse assessed as reduction in total cholesterol level at 100 mg/kg administered for 14 days; details: time 14.0 day
Mus musculus [18] = assay: Anti-NASH activity in CCl4-induced nonalcoholic steatohepatitis C57BL mouse assessed as reduction in triglyceride level at 30 mg/kg checked in presence of vitamin E
Mus musculus [19] = assay: Anti-NASH activity in CCl4-induced nonalcoholic steatohepatitis C57BL mouse assessed as reduction in total cholesterol level at 30 mg/kg checked in presence of vitamin E
Mus musculus [20] = assay: Anti-NASH activity in CCl4-induced nonalcoholic steatohepatitis C57BL mouse assessed as reduction in malondialdehyde level at 100 mg/kg administered for 14 days; details: time 14.0 day
Mus musculus [21] = assay: Anti-NASH activity in CCl4-induced nonalcoholic steatohepatitis C57BL mouse assessed as reduction in malondialdehyde level at 30 mg/kg checked in presence of vitamin E
Mus musculus [22] = assay: Anti-NASH activity in CCl4-induced nonalcoholic steatohepatitis C57BL mouse assessed as decrease in IL-2 expression at 30 mg/kg checked in presence of vitamin E by flow cytometry; details: time 14.0 day
Mus musculus [23] = assay: Anti-NASH activity in CCl4-induced nonalcoholic steatohepatitis C57BL mouse assessed as decrease in IL-17A expression at 30 mg/kg checked in presence of vitamin E by flow cytometry; details: time 14.0 day
Mus musculus [24] = assay: Anti-NASH activity in CCl4-induced nonalcoholic steatohepatitis C57BL mouse assessed as decrease in IFN expression at 100 mg/kg checked in presence of vitamin E by flow cytometry; details: time 14.0 day
Mus musculus [25] = assay: Anti-NASH activity in CCl4-induced nonalcoholic steatohepatitis C57BL mouse assessed as reduction in HYP content in liver at 100 mg/kg administered for 14 days; details: time 14.0 day
Mus musculus [26] = assay: Anti-NASH activity in CCl4-induced nonalcoholic steatohepatitis C57BL mouse assessed as reduction in serum ALT level at 100 mg/kg
Mus musculus [27] = assay: Anti-NASH activity in CCl4-induced nonalcoholic steatohepatitis C57BL mouse assessed as reduction in serum AST level at 100 mg/kg
Mus musculus [28] = assay: Anti-NASH activity in CCl4-induced nonalcoholic steatohepatitis C57BL mouse assessed as reduction in LDH level at 100 mg/kg
Mus musculus [29] = assay: Anti-NASH activity in CCl4-induced nonalcoholic steatohepatitis C57BL mouse assessed as decrease in IL-2 expression at 100 mg/kg by flow cytometry; details: time 14.0 day
Mus musculus [30] = assay: Anti-NASH activity in CCl4-induced nonalcoholic steatohepatitis C57BL mouse assessed as decrease in IL-17A expression at 100 mg/kg by flow cytometry; details: time 14.0 day
Mus musculus [31] = assay: Anti-NASH activity in CCl4-induced nonalcoholic steatohepatitis C57BL mouse assessed as decrease in IFN expression at 100 mg/kg by flow cytometry; details: time 14.0 day
Mus musculus [32] = assay: Anti-NASH activity in CCl4-induced nonalcoholic steatohepatitis C57BL mouse assessed as reduction in liver index at 60 mg/kg checked in presence of 30 to 100 mg/kg JBP485
Mus musculus [33] = assay: Anti-NASH activity in CCl4-induced nonalcoholic steatohepatitis C57BL mouse assessed as reduction in liver index at 60 mg/kg
Mus musculus [34] = assay: Anti-NASH activity in CCl4-induced nonalcoholic steatohepatitis C57BL mouse assessed as reduction in steatosis at 60 mg/kg checked in presence of 30 to 100 mg/kg JBP485 by H and E staining based assay
Mus musculus [35] = assay: Anti-NASH activity in CCl4-induced nonalcoholic steatohepatitis C57BL mouse assessed as reduction in liver ballooning degeneration at 60 mg/kg checked in presence of 30 to 100 mg/kg JBP485 by H and E staining based assay
Mus musculus [36] = assay: Anti-NASH activity in CCl4-induced nonalcoholic steatohepatitis C57BL mouse assessed as reduction in liver lobular inflammation at 60 mg/kg checked in presence of 30 to 100 mg/kg JBP485 by H and E staining based assay
Mus musculus [37] = assay: Anti-NASH activity in CCl4-induced nonalcoholic steatohepatitis C57BL mouse assessed as reduction in liver fibrosis at 60 mg/kg checked in presence of 30 to 100 mg/kg JBP485 by sirius red staining based assay
Mus musculus [38] = assay: Anti-NASH activity in CCl4-induced nonalcoholic steatohepatitis C57BL mouse at 60 mg/kg checked in presence of 30 to 100 mg/kg JBP485 by Oil red-O staining based assay
Mus musculus [39] = assay: Anti-NASH activity in CCl4-induced nonalcoholic steatohepatitis C57BL mouse assessed as reduction in steatosis at 60 mg/kg by H and E staining based assay
Mus musculus [40] = assay: Anti-NASH activity in CCl4-induced nonalcoholic steatohepatitis C57BL mouse assessed as reduction in liver ballooning degeneration at 60 mg/kg by H and E staining based assay
Mus musculus [41] = assay: Anti-NASH activity in CCl4-induced nonalcoholic steatohepatitis C57BL mouse assessed as reduction in liver lobular inflammation at 60 mg/kg by H and E staining based assay
Mus musculus [42] = assay: Anti-NASH activity in CCl4-induced nonalcoholic steatohepatitis C57BL mouse assessed as reduction in liver fibrosis at 60 mg/kg by sirius red staining based assay
Mus musculus [43] = assay: Anti-NASH activity in CCl4-induced nonalcoholic steatohepatitis C57BL mouse at 60 mg/kg by Oil red-O staining based assay
Mus musculus [44] = assay: Anti-NASH activity in CCl4-induced nonalcoholic steatohepatitis C57BL mouse assessed as reduction in serum ALT level at 60 mg/kg checked in presence of 30 to 100 mg/kg JBP485
Mus musculus [45] = assay: Anti-NASH activity in CCl4-induced nonalcoholic steatohepatitis C57BL mouse assessed as reduction in serum AST level at 60 mg/kg checked in presence of 30 to 100 mg/kg JBP485
Mus musculus [46] = assay: Anti-NASH activity in CCl4-induced nonalcoholic steatohepatitis C57BL mouse assessed as reduction in LDH level at 60 mg/kg checked in presence of JBP485
Mus musculus [47] = assay: Anti-NASH activity in CCl4-induced nonalcoholic steatohepatitis C57BL mouse assessed as reduction in triglyceride level at 60 mg/kg
Mus musculus [48] = assay: Anti-NASH activity in CCl4-induced nonalcoholic steatohepatitis C57BL mouse assessed as reduction in total cholesterol level at 60 mg/kg
Mus musculus [49] = assay: Anti-NASH activity in CCl4-induced nonalcoholic steatohepatitis C57BL mouse assessed as reduction in triglyceride level at 60 mg/kg checked in presence of JBP485
Mus musculus [50] = assay: Anti-NASH activity in CCl4-induced nonalcoholic steatohepatitis C57BL mouse assessed as reduction in total cholesterol level at 60 mg/kg checked in presence of JBP485
Mus musculus [51] = assay: Anti-NASH activity in CCl4-induced nonalcoholic steatohepatitis C57BL mouse assessed as reduction in malondialdehyde level at 60 mg/kg
Mus musculus [52] = assay: Anti-NASH activity in CCl4-induced nonalcoholic steatohepatitis C57BL mouse assessed as reduction in malondialdehyde level at 60 mg/kg checked in presence of JBP485
Mus musculus [53] = assay: Anti-NASH activity in CCl4-induced nonalcoholic steatohepatitis C57BL mouse assessed as decrease in IL-2 expression at 60 mg/kg checked in presence of JBP485 by flow cytometry; details: time 14.0 day
Mus musculus [54] = assay: Anti-NASH activity in CCl4-induced nonalcoholic steatohepatitis C57BL mouse assessed as decrease in IL-17A expression at 60 mg/kg checked in presence of JBP485 by flow cytometry; details: time 14.0 day
Mus musculus [55] = assay: Anti-NASH activity in CCl4-induced nonalcoholic steatohepatitis C57BL mouse assessed as decrease in IFN expression at 60 mg/kg checked in presence of JBP485 by flow cytometry; details: time 14.0 day

Measured: Activity

O=C1N[C@@H](CO)C(=O)N2C[C@H](O)C[C@@H]12
active: Mus musculus [1] | Mus musculus [2] | Mus musculus [3] | Mus musculus [4] | Mus musculus [5] | Mus musculus [6] | Mus musculus [7] | Mus musculus [8] | Mus musculus [9] | Mus musculus [10] | Mus musculus [11] | Mus musculus [12] | Mus musculus [13] | Mus musculus [14] | Mus musculus [15] | Mus musculus [16] | Mus musculus [17] | Mus musculus [18] | Mus musculus [19] | Mus musculus [20] | Mus musculus [21] | Mus musculus [22] | Mus musculus [23] | Mus musculus [24]

Cc1c(C)c2c(c(C)c1OC(=O)CCC(=O)O[C@@H]1C[C@H]3C(=O)N[C@@H](CO)C(=O)N3C1)CC[C@@](C)(CCC[C@H](C)CCC[C@H](C)CCCC(C)C)O2
active: Mus musculus [1] | Mus musculus [25] | Mus musculus [3] | Mus musculus [4] | Mus musculus [5] | Mus musculus [6] | Mus musculus [7] | Mus musculus [26] | Mus musculus [27] | Mus musculus [28] | Mus musculus [16] | Mus musculus [17] | Mus musculus [20] | Mus musculus [29] | Mus musculus [30] | Mus musculus [31]

VITAMIN E
active: Mus musculus [32] | Mus musculus [33] | Mus musculus [34] | Mus musculus [35] | Mus musculus [36] | Mus musculus [37] | Mus musculus [38] | Mus musculus [39] | Mus musculus [40] | Mus musculus [41] | Mus musculus [42] | Mus musculus [43] | Mus musculus [44] | Mus musculus [45] | Mus musculus [46] | Mus musculus [47] | Mus musculus [48] | Mus musculus [49] | Mus musculus [50] | Mus musculus [51] | Mus musculus [52] | Mus musculus [53] | Mus musculus [54] | Mus musculus [55]
